Measured values: patent US11945787B2, “Substituted imidazoles for preventing and/or treating cell or tissue necrosis” (Ela Pharma Ltd, priority 2015, dated 2024)
Where a SMILES comes first, the peptide text is derived from it. The star is where a group is joined. MeOSuc = COC(=O)CCC(=O)*; CH2Cl = ClC*

Legend:
U-937 cells = test: siRNA transfection, KCN-induced necrosis of U-937 cells, LDH release; format: cell-based, human; details: U-937, 7 hours KCN; FIG. 4A
PC12 cells [1] = test: siRNA transfection, KCN-induced necrosis of PC12 cells, LDH release; format: cell-based, rat; details: PC12, 5 hours KCN; FIG. 4C
elastase-like activity [2] = test: Elastase-like activity in lysates of siRNA-treated cells exposed to KCN; format: cell-based; details: KCN 10 mM 30 minutes; FIG. 5A
Cathepsin C = Cathepsin C activity in lysates of siRNA-treated cells exposed to KCN; format: cell-based; details: KCN 10 mM 30 minutes; FIG. 5B
PC12 cells [3] = test: KCN-induced necrosis of PC12 cells, LDH release; format: cell-based, rat; details: for inhibition at 0.0001 µM / inhibition at 0.001 µM / inhibition at 0.01 µM / inhibition at 0.1 µM / inhibition at 1 µM: Rattus norvegicus, PC-12, 5 h, KCN, PC12, LDH release (Table 5); for inhibition at 0.0001 µM: 0.1 nM, read-out: % protection at 0.1 nM; for inhibition at 0.001 µM: 1 nM, read-out: % protection at 1 nM; for inhibition at 0.01 µM: 10 nM, read-out: % protection At 10 nM; for inhibition at 0.1 µM: read-out: % protection at 0.1 μM; for inhibition at 1 µM: read-out: % protection at 1 μM
Protocol: The rat pheochromocytoma PC12 cell line was propagated in DMEM medium (Beit Haemek, Israel), supplemented with 5% heat-inactivated calf serum, 10% heat-inactivated horse serum, 2 mM L-glutamine, 100 U/ml penicillin and 100 μg/ml streptomycin. PC12 cells in logarithmic phase were seeded at a concentration of 1.2×10^5/well in 96-well plates and incubated overnight.
Thereafter, the cells were washed twice and maintained in RPMI-1640 (U-937cells) and DMEM (PC-12 cells) glucose-free medium, supplemented with 2 mM pyruvate and 10% dialyzed FCS for one hour. Then cells were treated with or without KCN (Merck, Germany) at the indicated concentrations for 7 hours (U-937 cells), or for 5 hours (PC12 cells).
Elastase inhibitors II (MeOSuc-AAPA-CMK) and elastase inhibitor III (MeOSuc-AAPV-CMK) were purchased from Calbiochem-Novabiochem, USA. Compound Gly-Phe diazomethylketone was purchased from MP Biomedicals, USA. All the compounds disclosed in Table 1 hereinabove were purchased from ChemDiv, San Diego, CA. The compounds were dissolved in DMSO and were administered 30 min before addition of the cell death inducer. The final concentration of DMSO, added to all samples, was 0.1%, which had no effect by itself siRNA and cell transfection
The amount of LDH released from lysed cells is a sensitive measure of cell death. Necrotic cell death was measured in 96-well plates using Promega CytoTox 96 LDH assay kit. LDH content from the cells lysed in 0.1% Triton X-100 for 10 min was used as an index of total LDH. The LDH released in culture medium was used as an index of necrotic cell death and the percentage from total LDH was calculated. The protection by the inhibitor was calculated based on comparing percentage of LDH release in the presence and in the absence of the inhibitor. The inhibitors were also added to totals, blanks and controls. Absorbance at 490 nm was measured by ELISA reader (BioTec).
These compounds were tested for their ability to inhibit necrosis induced by KCN in PC12 cells. The necrotic mode of cell death in this system was validated as previously described. PC12 cells were challenged with KCN as described above. The protective results of the compounds against KCN-induced necrosis assessed using LDH release method are shown below in Table 5. The IC50 values of these inhibitors is in the range of tens to single nanomolar.

[4] = test system: Balb/c mice, myocardial ischemia/reperfusion; test: Myocardial ischemia/reperfusion in mice; format: in vivo, mouse; details: 30 mg/kg IV 20 min before ischemia and at reperfusion; 30 min ischemia, 6 h reperfusion
Protocol: Male Balb/c mice (20-25 g; Charles River; Milan; Italy) were housed in a controlled environment and provided with standard rodent chow and water.
Mice were subjected to 30 minutes of myocardial ischemia and 6 hours of reperfusion, using published methodologies (Yet et al, 2001). Study groups consisted of sham, vehicle control, and inhibitor (n=8/group, see below). Briefly, mice were anesthetized with pentobarbital sodium (60 mg/kg body weight) with additional doses given as needed to maintain anesthesia. Mice were intubated and mechanically ventilated with 100% oxygen. Mice received a first IV dose of the active inhibitor 1-(2-(4-methylpiperazin-1-yl)-4,5-dihydro-1H-imidazol-1-yl)propan-1-one (M059-0891) (30 mg/kg) and their chest was opened. […] The area of necrosis, as a % of AAR was quantified. […]
After the reperfusion period, 1 mL/kg of a 4% thioflavin S solution is injected IV in order to delineate the no-reflow area. […] The areas of ischemic and nonischemic regions are computed and expressed as a percentage of the slice, as are the % of necrotic and non-necrotic tissue. […] AAR (unstained blue area) is expressed as a percentage of the LV mass. The extent of necrosis is calculated as a percentage of the LV mass, and the infarct size expressed as a percentage of the AAR (infarct size=extent of necrosis/extent of AAR).

elastase-like activity [5] = test: Elastase-like activity in lysates of KCN-treated U-937 cells (MAAPV substrate); format: biochemical, human; details: treatment of intact cells
PC12 cells [6] = test: Rescue of KCN-treated PC12 cells, XTT viability up to 48 h; format: cell-based, rat; details: 5 h KCN, then full DMEM 24 or 48 hours; FIG. 7C
[7] = test system: C57BL/6J mice, closed head trauma; test: Closed head injury (traumatic brain injury) in mice; format: in vivo, mouse
Protocol: The closed head injury method was used to determine the effect of the elastase inhibitor on the development of brain necrosis and on the neurological status assessed using the neurological severity score (NSS). NSS test was performed 1 hour after trauma. During NSS test, various reflexes, ability to move, beam balance, beam walk and other behavior parameters like seeking and exiting from a cycle were monitored. Development of necrosis was measured by assessing necrotic space in brain slices stained with 2,3,5-triphenyl-2H-tetrazolium chloride (TTC).
C57BL/6J mice weighing 40+4 g (mean±SD) were used in the study. A weight-drop device was used to deliver a shock to the scull resulting in a controlled cerebral injury. Impact was delivered by a silicone-coated 5 mm metal tip extruding from a platform that falls down a frame. This model of cranial injury has been used in previous studies [Feldman Z et al., J Neurosurg (1995) 83:1060-1066; Shapira Y et al., J Neurosurg Anesthesiol (1995) 7:17-25].). All animal procedures and care techniques were approved by the Ben-Gurion University of the Negev Committee for the Ethical Care and Use of Animals in Research.
Mice were prepared for surgery by anesthetization with isoflurane and allowed to breathe spontaneously. Maintenance of adequate anesthesia for the experimental procedure was confirmed by loss of corneal reflexes. Once the corneal reflexes were abolished, a midline scalp incision was made and the scalp and underlying muscles were moved laterally. Closed head trauma (CHT) was delivered to the skull over the frontal portion of the left cerebral hemisphere. 1 minute after the trauma 100 μg of elastase inhibitor II or III in its vehicle (DMSO solution), were injected intracerebraspinaly by direct delivery into the cisterna magna. The vehicle itself was previously found to have no effect.
In addition to the wild type C57BL/6J mice, neutrophil elastase knockout mice strain B6.129X1-Elane were also examined. All procedures were approved by the Ethics Committee of Ben-Gurion University of Negev.

[8] = test system: C57BL/6J mice, acetaminophen hepatotoxicity; test: APAP-induced liver toxicity in mice; format: in vivo, mouse; details: IP 4 hours after APAP 300 mg/kg; measured 24 hours; dose dependent
Protocol: Wild type C57BL/6J mice weighing 23+3 grams were used, 6 mice per treatment. The mice were obtained from Harlan (Israel). All animal procedures and care techniques were approved by the Ben-Gurion University of the Negev Committee for the Ethical Care and Use of Animals in Research. Mice were fast for 16h prior to administration of a single intraperitoneal (i. p.) dose of acetaminophen (N-acetyl-p-aminophenol) APAP (300 mg/kg). 4 hours after the APAP injection, the mice were injected i. p. with the tested compound, dissolved in vehicle (20% DMSO in PBS). The control mice were injected with the vehicle only. 24h after APAP injection, the mice were sacrificed and blood collected from the heart. Heparin was used as an anti-clotting additive for plasma collection. The plasma samples were centrifuged at 4000 g at room temperature for 10 min. The supernatant was collected for measurement of ALT and AST levels. The enzyme levels were measured with an autoanalyzer in Soroka's Biochemistry Medical Center.

Molecule | protection against KCN-induced necrosis, LDH release (U-937 cells) | protection against cyanide induced cell death, LDH release (PC12 cells [1]) | elastase-like activity of cell lysates (elastase-like activity [2]) | Cathepsin C activity of cell lysates (Cathepsin C) | inhibition at 0.0001 µM (PC12 cells [3]) [%] | inhibition at 0.001 µM (PC12 cells [3]) [%] | inhibition at 0.01 µM (PC12 cells [3]) [%] | inhibition at 0.1 µM (PC12 cells [3]) [%] | inhibition at 1 µM (PC12 cells [3]) [%] | also measured
siRNA for CELA1: siRNA for CELA1, CGGCAACATGCTGGTCCTTTA (SEQ ID NO: 2), Qiagen (listed as DNA, chemistry not given here) | partial protection | significant protective effect | stable and significant decrease | no effect | – | – | – | – | – | –
siRNA for CELA3A: siRNA for CELA3A, CTGCCTTTGGCTGCAACTTCA (SEQ ID NO: 3), Qiagen (listed as DNA, chemistry not given here) | partial protection | significant protective effect | stable and significant decrease | no effect | – | – | – | – | – | –
CCC(=O)N1CCN=C1N1CCN(C)CC1 [M059-0891, 1-(2-(4-methylpiperazin-1-yl)-4,5-dihydro-1H-imidazol-1-yl)propan-1-one] | – | – | – | – | 25 | 36 | 55 | 84 | 85 | necrosis and infarct size [4]: significant reduction
siRNA for Cathepsin C: siRNA for Cathepsin C silencing, ATGATCTGCATCAGTTGTAAA (SEQ ID NO: 1), Qiagen (listed as DNA, chemistry not given here) | protective effect | significant protective effect | – | stable and significant decrease | – | – | – | – | – | –
COC(=O)CCC(=O)N[C@@H](C)C(=O)N[C@@H](C)C(=O)N1CCC[C@H]1C(=O)N[C@@H](C)C(=O)CCl [EI II, MeOSuc-AAPA-CMK] (MeOSuc-AAPA-CH2Cl) | – | – | – | – | – | – | – | – | – | KCN-induced necrotic cell death assessed by LDH release (PC12 cells [3]; PC12, KCN 5 hours, FIGS. 6, 7A-B): inhibited in a dose dependent manner; inhibition of necrosis induced by KCN at high concentrations (PC12 cells [3]; up to 300 μM): significantly inhibited necrosis; effect of inhibitor by itself on PC-12 cells (PC12 cells [3]; up to 300 μM, without KCN): inactive by themselves; induction of elastase-like enzymatic activity in intact cells (elastase-like activity [5]): abrogated the induction; cell viability (XTT) after KCN treatment (PC12 cells [6]): protective effect; neurological severity score (NSS) ([7]; 100 μg into cisterna magna 1 min after trauma, 1 hour post injury): significantly reduce neurological damage; space of necrotic tissue, TTC staining ([7]; 100 μg into cisterna magna, untreated traumatized 50%): 25 % of the damaged hemisphere
O=C(c1csc(N2CCCCC2)n1)N1CCCC1 [Z601-4253, (2-(piperidin-1-yl)thiazol-4-yl)(pyrrolidin-1-yl)methanone] | – | – | – | – | 29 | 34 | 61 | 74 | 100 | ALT level in blood [8]: significantly reduced; AST level in blood [8]: significantly reduced
